Experimental data: ChEMBL document CHEMBL1201862, “PubChem BioAssay data set” (2004)
Calls of active or inactive are those of the source.

Columns and labels:
[1] = biological target: T1, High affinity choline transporter 1 (Homo sapiens, UniProt Q9GZV3); assay: human choline transporter blockers, potency – cell-based, 5-point CRC, membrane potential dye, dose response (AID 504840); format: functional
T1 sequence (Q9GZV3 whole entry): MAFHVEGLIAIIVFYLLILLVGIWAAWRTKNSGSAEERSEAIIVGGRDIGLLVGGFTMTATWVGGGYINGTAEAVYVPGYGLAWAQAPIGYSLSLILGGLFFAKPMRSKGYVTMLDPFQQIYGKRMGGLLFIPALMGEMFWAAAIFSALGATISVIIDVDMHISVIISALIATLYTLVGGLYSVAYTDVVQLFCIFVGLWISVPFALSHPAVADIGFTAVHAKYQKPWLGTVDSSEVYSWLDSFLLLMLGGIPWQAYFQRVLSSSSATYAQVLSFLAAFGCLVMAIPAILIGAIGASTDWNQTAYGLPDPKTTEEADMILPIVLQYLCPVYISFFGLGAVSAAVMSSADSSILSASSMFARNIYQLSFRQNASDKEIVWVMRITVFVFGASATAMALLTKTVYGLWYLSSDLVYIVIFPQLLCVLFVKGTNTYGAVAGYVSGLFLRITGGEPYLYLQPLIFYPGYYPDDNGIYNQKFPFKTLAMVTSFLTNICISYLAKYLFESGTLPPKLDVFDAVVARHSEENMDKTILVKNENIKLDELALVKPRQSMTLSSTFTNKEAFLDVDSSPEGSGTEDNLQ

Leucine aminopeptidase = biological target: T2, Leucine aminopeptidase (Plasmodium falciparum 3D7, UniProt Q8IL11); assay: P. falciparum M17LAP inhibitors, primary screen, biochemical, fluorogenic H-Leu-NHMec substrate, 1536-well (AID 1619); format: functional
T2 sequence (Q8IL11 whole entry): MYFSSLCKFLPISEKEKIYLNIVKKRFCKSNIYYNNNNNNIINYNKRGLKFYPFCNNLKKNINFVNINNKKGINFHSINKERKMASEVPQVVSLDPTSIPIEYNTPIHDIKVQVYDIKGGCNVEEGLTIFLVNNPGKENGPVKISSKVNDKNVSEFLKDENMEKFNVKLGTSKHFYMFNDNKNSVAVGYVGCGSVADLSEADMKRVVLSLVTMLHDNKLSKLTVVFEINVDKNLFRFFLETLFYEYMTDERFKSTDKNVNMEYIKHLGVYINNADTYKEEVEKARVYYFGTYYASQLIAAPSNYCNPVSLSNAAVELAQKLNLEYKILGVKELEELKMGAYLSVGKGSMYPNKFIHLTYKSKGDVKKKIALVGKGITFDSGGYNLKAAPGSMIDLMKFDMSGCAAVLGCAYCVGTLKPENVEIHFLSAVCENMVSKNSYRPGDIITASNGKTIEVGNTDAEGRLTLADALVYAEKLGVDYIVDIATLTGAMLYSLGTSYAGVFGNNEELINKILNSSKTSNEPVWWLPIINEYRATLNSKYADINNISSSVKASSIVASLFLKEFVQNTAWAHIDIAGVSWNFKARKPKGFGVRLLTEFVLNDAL

[2] = biological target: T3, Voltage-gated N-type calcium channel alpha-1B subunit/Amyloid beta A4 precursor protein-binding family A member 1 (Homo sapiens, UniProt Q00975+Q02410); format: protein assay
[3] = biological target: T3, Voltage-gated N-type calcium channel alpha-1B subunit/Amyloid beta A4 precursor protein-binding family A member 1; format: protein assay; remark: listed apart in the source
[4] = biological target: T4, Polyadenylate-binding protein 1 (Homo sapiens, UniProt P11940); assay: MLLE domain peptide-binding blockers, IC50 – biochemical, fluorescence polarization, FITC-PAM2 peptide, dose response (AID 602259); format: functional; conditions: read-out: IC50_Mean
[5] = biological target: Peroxisome proliferator-activated receptor gamma/Nuclear receptor coactivator 2 (Homo sapiens, UniProt P37231); assay: (§1) TR-FRET dose response biochemical High Throughput Screening assay for agonists of the steroid receptor coactivator 2 (SRC-2) recruitment by the peroxisome proliferator-activated receptor gamma (PPAR gamma): non-selective agonists. [Related pubchem assays: 1297, 1032 ]; format: functional
[6] = biological target: Peroxisome proliferator-activated receptor gamma/Nuclear receptor coactivator 3 (Homo sapiens, UniProt P37231); assay: as §1, with “3 (SRC-3)” for “2 (SRC-2)”, “1301 (Confirmation screen.), 1048 (Primary screen.)]” for “1297, 1032 ]”; format: functional
[7] = biological target: T4, Polyadenylate-binding protein 1; assay: MLLE binding blockers, Cy5 peptide tracer – biochemical, fluorescence polarization, Cy5-PAM2 peptide, secondary, miRNA deadenylation inhibitor project, dose response (AID 602260); format: functional; conditions: read-out: IC50_Mean
[8] = biological target: Peroxisome proliferator-activated receptor gamma/Nuclear receptor coactivator 1 (Homo sapiens, UniProt P37231); assay: as §1, with “1 (SRC-1)” for “2 (SRC-2)”, “assays (depositor defined):AID1300, AID1808, AID504735, AID631]” for “assays: 1297, 1032 ]”; format: protein assay
[9] = biological target: Glucose-6-phosphate 1-dehydrogenase (Homo sapiens, UniProt P11413); assay: inhibition of Homo sapiens G6PD, dose series – biochemical, fluorescence, selectivity assay for P. falciparum G6PD inhibitor project, dose response (AID 504792); format: functional
[10] = DRD fibroblast viability loss – cell-based, non-viral oncogenic, luminescence, dose response (AID 1934); format: functional; conditions: Homo sapiens
BJ [11] = assay: BJ-TERT fibroblast viability loss – cell-based, RAS-independent, luminescence, dose response (AID 1933); format: functional; conditions: Homo sapiens
BJ [12] = assay: cells; format: functional, cell-based; conditions: Homo sapiens
[13] = Luminescence Cell-Based Dose Retest to Confirm Inhibitors of Cancer Stem Cells. [Related pubchem assays (depositor defined):AID2717, AID2721]; format: functional; conditions: Homo sapiens
BJ [14] = assay: BJ-TERT-LT-ST fibroblast viability loss – cell-based, RAS-independent, luminescence, dose response (AID 1935); format: functional; conditions: Homo sapiens;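 further: BJ fibroblasts immortalized with TERT plus LT and ST oncogenes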
[15] = viability of uninfected HEp-2 cells – cell-based, HTS, cytotoxicity control for RSV inhibitor project, dose response (AID 2410); format: functional; conditions: human respiratory syncytial virus
[16] = A549 cell cytotoxicity, dose response, cytotoxicity control, plate reader, cherry-pick, antagonist series (AID 743412); format: functional, cell-based
[17] = blockers of bursicon-stimulated LGR2 cAMP reporter – cell-based, HEK293, CRE-luciferase reporter, cherry pick, set 2, dose response (AID 743343); format: functional;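 further: transfected cells were stimulated with diluted bursicon conditioned medium after compound addition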
[18] = blockade of melanocortin 4 receptor signaling – cell-based, plate reader, cherry pick, counter-screen for LGR2 antagonist project, dose response (AID 743444); format: functional;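 further: transfected HEK 293 cells stimulated with alpha-MSH peptide; potency of inhibitors of the alpha-MSH evoked signal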
[19] = viability of PTEN-deleted HCT116 cells – cell-based, HCT116 PTEN knockout, dose response (AID 1047); format: functional;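 further: HCT116 colon tumor cells with PTEN knocked out; cells exposed to compound for 60 hours before readout; potency for loss of cell viability measured by luminescence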
[20] = viability of HCT116 lacking mutant beta-catenin – cell-based, human colon tumor, dose response (AID 1045); format: functional;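 further: HCT116 colon tumor cells with beta catenin knocked out; cells exposed to compound for 60 hours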
[21] = THP-1 cell cytotoxicity, dose response, cytotoxicity control for non-replicating M. tuberculosis project (AID 489025); format: functional
cells = format: functional
Protein RecA = biological target: T5, Protein RecA (Mycobacterium tuberculosis, UniProt P9WHJ3); assay: Fluorescence Cell-Free Homogeneous Dose Retest to Identify Inhibitors of RecA-Intein Splicing Activity. [Related pubchem assays (depositor defined):AID2097, AID2223, AID489010, AID492950]; format: functional
T5 sequence (P9WHJ3 whole entry): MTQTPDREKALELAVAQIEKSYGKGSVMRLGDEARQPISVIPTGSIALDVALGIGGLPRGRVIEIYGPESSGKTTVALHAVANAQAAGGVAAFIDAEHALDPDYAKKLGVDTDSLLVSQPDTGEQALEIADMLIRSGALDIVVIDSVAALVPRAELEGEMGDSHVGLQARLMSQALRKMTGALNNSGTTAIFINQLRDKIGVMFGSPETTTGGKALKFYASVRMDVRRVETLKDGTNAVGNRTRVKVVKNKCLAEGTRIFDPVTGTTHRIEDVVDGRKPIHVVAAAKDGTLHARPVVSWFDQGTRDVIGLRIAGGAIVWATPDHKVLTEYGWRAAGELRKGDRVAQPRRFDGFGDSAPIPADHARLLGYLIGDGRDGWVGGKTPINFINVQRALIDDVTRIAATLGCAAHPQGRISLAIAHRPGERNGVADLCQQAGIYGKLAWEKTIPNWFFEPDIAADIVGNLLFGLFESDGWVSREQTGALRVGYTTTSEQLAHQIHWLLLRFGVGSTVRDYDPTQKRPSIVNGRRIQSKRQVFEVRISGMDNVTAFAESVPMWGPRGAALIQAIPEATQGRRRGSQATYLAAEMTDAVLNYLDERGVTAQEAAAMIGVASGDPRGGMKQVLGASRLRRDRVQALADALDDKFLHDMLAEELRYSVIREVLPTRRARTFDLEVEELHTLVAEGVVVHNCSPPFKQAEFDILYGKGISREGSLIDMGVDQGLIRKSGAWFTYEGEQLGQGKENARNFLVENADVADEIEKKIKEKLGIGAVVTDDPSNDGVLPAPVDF

[22] = biological target: T6, Replicative DNA helicase DnaB (Mycobacterium tuberculosis, UniProt P9WMR3); assay: DnaB intein splicing inhibitors, dose response, biochemical, cell-free fluorescence (AID 449749); format: functional
T6 sequence (P9WMR3 whole entry): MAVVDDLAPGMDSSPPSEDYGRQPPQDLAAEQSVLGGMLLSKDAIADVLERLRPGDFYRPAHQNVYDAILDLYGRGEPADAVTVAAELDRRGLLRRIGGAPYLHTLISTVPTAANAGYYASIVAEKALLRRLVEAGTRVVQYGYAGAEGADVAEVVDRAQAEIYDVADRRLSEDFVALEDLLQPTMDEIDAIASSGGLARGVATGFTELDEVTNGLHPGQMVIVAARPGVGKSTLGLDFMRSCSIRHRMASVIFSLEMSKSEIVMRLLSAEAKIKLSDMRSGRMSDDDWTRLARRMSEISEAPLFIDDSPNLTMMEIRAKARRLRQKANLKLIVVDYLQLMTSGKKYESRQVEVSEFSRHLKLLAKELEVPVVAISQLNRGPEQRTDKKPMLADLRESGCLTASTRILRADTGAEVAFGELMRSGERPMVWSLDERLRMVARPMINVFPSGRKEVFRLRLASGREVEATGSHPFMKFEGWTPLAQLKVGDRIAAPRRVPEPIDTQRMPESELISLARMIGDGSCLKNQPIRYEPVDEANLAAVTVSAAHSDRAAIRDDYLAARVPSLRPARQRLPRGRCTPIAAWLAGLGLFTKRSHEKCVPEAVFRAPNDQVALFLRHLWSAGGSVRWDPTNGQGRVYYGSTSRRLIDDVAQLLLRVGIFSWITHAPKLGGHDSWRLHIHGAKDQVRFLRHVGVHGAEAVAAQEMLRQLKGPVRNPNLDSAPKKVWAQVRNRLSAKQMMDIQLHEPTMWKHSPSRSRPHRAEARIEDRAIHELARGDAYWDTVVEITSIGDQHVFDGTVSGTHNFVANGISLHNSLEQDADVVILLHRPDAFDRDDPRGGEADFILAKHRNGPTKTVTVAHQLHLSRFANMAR

T3 sequence (Q00975 whole entry): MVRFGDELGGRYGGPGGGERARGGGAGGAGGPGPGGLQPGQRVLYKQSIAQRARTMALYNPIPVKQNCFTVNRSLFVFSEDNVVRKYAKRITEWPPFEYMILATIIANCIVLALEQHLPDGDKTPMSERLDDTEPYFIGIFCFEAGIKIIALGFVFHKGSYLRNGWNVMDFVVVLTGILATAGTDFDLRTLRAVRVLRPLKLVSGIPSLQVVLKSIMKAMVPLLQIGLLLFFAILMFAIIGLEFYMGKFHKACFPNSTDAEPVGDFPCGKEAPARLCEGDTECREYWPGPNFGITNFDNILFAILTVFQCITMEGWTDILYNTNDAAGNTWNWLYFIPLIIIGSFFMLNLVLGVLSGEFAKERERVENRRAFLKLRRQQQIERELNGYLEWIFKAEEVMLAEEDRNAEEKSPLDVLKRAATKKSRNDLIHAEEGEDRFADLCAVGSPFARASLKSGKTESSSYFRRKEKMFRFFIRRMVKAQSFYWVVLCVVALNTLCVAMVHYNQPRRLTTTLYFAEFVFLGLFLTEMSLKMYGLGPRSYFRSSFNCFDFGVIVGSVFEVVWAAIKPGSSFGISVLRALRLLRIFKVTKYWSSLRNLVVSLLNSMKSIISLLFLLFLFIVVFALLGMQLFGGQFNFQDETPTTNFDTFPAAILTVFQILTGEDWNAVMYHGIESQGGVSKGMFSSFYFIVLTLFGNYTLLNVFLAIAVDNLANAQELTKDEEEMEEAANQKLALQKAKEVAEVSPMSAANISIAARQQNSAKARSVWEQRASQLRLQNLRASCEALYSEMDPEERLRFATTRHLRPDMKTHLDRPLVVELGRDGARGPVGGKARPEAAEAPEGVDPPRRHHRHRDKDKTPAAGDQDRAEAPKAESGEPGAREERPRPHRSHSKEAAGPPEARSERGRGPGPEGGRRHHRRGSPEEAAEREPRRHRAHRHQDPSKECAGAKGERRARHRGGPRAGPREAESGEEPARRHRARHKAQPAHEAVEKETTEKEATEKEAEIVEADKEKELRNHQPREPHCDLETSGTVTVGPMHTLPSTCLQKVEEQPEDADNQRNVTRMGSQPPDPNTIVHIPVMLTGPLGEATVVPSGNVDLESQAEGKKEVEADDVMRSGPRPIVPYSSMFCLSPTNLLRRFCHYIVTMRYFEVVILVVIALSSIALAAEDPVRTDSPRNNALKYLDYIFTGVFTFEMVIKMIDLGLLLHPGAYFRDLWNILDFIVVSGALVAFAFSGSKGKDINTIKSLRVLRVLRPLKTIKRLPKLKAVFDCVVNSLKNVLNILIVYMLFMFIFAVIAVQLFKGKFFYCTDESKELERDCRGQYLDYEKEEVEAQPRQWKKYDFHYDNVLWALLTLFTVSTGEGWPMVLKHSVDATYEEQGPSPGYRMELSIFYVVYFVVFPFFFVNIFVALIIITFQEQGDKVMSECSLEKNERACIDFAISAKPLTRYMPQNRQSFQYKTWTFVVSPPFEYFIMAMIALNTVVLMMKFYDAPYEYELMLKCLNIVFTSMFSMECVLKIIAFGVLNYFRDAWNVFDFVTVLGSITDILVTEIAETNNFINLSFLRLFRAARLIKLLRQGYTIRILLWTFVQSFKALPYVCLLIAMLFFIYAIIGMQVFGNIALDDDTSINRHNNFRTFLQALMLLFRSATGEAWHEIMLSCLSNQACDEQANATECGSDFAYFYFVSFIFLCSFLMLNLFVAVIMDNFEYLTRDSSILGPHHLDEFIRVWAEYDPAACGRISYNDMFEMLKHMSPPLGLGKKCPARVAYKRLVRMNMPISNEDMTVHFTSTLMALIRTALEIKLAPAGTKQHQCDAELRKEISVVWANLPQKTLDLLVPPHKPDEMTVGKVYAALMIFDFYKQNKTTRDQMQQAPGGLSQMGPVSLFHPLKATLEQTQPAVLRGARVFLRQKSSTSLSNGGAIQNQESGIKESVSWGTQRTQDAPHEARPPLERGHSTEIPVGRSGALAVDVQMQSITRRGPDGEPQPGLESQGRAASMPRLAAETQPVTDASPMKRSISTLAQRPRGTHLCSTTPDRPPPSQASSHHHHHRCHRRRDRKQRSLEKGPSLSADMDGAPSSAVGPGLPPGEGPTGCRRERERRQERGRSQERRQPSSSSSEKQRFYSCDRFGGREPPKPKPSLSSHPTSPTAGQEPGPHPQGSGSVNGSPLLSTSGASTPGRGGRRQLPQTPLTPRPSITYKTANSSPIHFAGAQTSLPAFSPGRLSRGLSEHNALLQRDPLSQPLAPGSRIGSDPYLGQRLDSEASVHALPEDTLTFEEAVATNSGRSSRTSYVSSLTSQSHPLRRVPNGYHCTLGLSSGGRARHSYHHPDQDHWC
T3 sequence (Q02410 whole entry): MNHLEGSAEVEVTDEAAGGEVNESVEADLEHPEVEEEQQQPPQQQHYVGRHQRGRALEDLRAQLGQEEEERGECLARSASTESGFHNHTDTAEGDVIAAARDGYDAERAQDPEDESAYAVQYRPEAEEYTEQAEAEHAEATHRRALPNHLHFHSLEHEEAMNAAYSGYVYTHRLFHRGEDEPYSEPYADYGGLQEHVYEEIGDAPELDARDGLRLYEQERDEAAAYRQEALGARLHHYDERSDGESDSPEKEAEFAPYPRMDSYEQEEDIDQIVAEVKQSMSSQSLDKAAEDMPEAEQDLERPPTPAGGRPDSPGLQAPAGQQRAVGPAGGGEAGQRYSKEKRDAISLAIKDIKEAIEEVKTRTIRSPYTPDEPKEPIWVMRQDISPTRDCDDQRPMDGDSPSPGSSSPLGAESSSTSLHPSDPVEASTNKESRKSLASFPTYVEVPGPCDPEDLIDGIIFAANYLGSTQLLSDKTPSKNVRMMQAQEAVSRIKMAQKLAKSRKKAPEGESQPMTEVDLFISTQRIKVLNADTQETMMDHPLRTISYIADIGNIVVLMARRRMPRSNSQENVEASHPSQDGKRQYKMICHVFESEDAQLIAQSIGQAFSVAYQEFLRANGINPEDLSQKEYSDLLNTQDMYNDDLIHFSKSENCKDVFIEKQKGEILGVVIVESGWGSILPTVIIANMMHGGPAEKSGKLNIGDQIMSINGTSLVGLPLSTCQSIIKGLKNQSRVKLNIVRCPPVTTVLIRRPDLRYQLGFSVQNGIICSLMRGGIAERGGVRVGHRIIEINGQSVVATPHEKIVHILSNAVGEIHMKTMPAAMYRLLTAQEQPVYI
T4 sequence (P11940 whole entry, the tested form may be a part): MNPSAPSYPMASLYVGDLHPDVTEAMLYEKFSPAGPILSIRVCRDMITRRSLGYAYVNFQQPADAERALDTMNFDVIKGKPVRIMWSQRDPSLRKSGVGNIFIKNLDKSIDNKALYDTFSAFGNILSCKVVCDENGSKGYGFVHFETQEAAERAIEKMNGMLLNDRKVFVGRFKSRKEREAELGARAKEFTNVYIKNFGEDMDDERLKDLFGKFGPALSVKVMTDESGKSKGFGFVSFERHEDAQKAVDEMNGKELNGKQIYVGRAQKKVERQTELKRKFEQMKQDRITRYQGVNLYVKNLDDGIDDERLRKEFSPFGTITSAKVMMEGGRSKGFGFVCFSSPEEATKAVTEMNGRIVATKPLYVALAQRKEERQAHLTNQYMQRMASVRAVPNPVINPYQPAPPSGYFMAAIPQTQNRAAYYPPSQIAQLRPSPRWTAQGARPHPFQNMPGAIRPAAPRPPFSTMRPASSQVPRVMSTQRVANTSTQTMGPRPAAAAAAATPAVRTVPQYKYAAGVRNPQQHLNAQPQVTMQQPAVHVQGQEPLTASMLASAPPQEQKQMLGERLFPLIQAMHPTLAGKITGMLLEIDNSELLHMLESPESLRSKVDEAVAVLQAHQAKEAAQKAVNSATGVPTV
Sequence of Glucose-6-phosphate 1-dehydrogenase (P11413 whole entry): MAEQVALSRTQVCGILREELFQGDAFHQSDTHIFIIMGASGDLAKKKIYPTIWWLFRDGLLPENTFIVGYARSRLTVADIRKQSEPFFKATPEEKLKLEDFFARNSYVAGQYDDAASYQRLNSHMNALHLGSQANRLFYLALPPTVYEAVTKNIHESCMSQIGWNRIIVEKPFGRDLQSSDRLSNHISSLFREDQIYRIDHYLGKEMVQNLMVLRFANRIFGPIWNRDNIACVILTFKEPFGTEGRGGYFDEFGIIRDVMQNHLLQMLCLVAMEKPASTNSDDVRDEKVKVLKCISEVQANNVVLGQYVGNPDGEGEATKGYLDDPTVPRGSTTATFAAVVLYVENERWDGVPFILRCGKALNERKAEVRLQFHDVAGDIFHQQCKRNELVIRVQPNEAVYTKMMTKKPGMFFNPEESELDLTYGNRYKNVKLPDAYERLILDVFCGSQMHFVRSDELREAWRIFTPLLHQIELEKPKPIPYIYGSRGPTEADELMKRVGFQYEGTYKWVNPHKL

Question: Which IC50 [1] does the source give for `Fc1ccccc1CCNc1c2c(nc3ncnn13)CCCC2` here?
Answer: The IC50 was 13.8 µM (active).

Question: With `Oc1ccc(/C=N/NC(=S)Nc2cccnc2)cc1O` as the compound, how does the IC50 (Leucine aminopeptidase) read?
Answer: The IC50 was 49.6 µM (active).

Question: Which IC50 [2] does the source give for `Cc1cc(=O)oc2cc(NC(=O)c3cccc(Br)c3)ccc12` here?
Answer: Its IC50 is > 50 µM (inactive).

Question: And the IC50 [3]?
Answer: Its IC50 is 5.32 µM (active).

Question: What does the source list for `Cc1sc(NC(=S)Nc2ccc(F)cc2)c(C(N)=O)c1C`?
Answer: IC50 [4]: > 66 µM (inactive); EC50 [5]: 9.42 µM (active); EC50 [6]: > 79.4 µM (not active); IC50 (Leucine aminopeptidase): 53.1 µM (active); IC50 [7]: > 66 µM (inactive); EC50 [8]: 9.36 µM (active)

Question: For `O=C(O)CSc1nnc(CNc2cccc(C(F)(F)F)c2)n1Cc1ccco1`, which IC50 (Leucine aminopeptidase) is on record?
Answer: The IC50 was 48.8 µM (active).

Question: What does the source list for `CCCCNC(=O)CSc1cc(=O)n(C)c2ccccc12`?
Answer: EC50 [5]: > 79.4 µM (not active); EC50 [6]: > 79.4 µM (not active); EC50 [8]: > 79.4 µM (inactive)

Question: Which IC50 [9] does the source give for `CNS(=O)(=O)c1ccc(-c2ccc(C=C3C(=O)NC(=O)NC3=O)o2)cc1` here?
Answer: Its IC50 is 51.2 µM (inactive).

Question: What does the source list for `CN(C)CCCNc1ccc(-c2cc(Nc3cccc(Cl)c3)ncn2)cn1`?
Answer: EC50 [10]: 22.6 µM (active); EC50 (BJ [11]): 14.1 µM (active); EC50 (BJ [12]): > 150 µM (not active); AC50 [13]: 4.54 µM (active); EC50 (BJ [14]): > 75 µM (not active)

Question: Which IC50 (Leucine aminopeptidase) does the source give for `Clc1cc(Cl)cc(Nc2nc[nH]n2)c1` here?
Answer: The IC50 was 23.3 µM (active).

Question: And the CC50 [15]?
Answer: The CC50 was 22.7 µM (active).

Question: For `CSc1nnc(NC(=O)c2ccc3c(c2)OCO3)s1`, which AC50 [16] is on record?
Answer: The AC50 was > 52 µM (inactive).

Question: And the AC50 [17]?
Answer: Its AC50 is 1.72 µM (active).

Question: What about the AC50 [18] of the same compound?
Answer: The AC50 was 1.86 µM (active).

Question: And the IC50 [9]?
Answer: Its IC50 is 22.5 µM (inactive).

Question: What does the source list for `O=C(COC(=O)CNC(=O)c1ccc(-c2ccccc2)cc1)NCc1ccco1`?
Answer: IC50 [2]: 49.5 µM (active); IC50 [3]: 5.35 µM (active)

Question: Which results are given for `CC(=O)OCCNc1cc(SCc2ccco2)c2nonc2c1[N+](=O)[O-]`?
Answer: EC50 [19]: 23.7 µM (active); EC50 [20]: 17.6 µM (active); CC50 [21]: 30.1 µM (active); IC50 (cells): 5.86 µM (active); EC50 (Protein RecA): 2.73 µM (active); AC50 [22]: 8.4 µM (active)
